Measured values taken from PubChem BioAssay AID256 (DTP/NCI, 2004).
Values joined by “and” are separate entries in the source; they are usually repeats but may differ in a detail not shown here. Identical values can stand only once. Inconclusive results and toxic doses are left out. The calls were made as follows: active = survival T/C of 150% or more; inactive = T/C below 125% in these data.

Test system: CD2F1 mice, L1210 leukemia ip, survival T/C
Experiment: NCI In Vivo Anticancer Drug Screen. Data for tumor model L1210 Leukemia (intraperitoneal) in CD2F1 (CDF1) mice
Details: endpoint: mean survival time, higher = longer survival
In short: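 Ratio T/C, where T is the treated-group value and C the vehicle-dosed control value, from mice implanted with a transplantable tumor.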

[1] = dose: 100.0 mg/kg/injection, schedule: Q01DX001 (ip), vehicle: saline
[2] = dose: 200.0 mg/kg/injection, schedule: Q01DX001 (ip), vehicle: saline
[3] = dose: 400.0 mg/kg/injection, schedule: Q01DX001 (ip), vehicle: saline
[4] = dose: 100.0 mg/kg/injection, schedule: Q01DX009 (ip), vehicle: saline with Tween-80
[5] = dose: 200.0 mg/kg/injection, schedule: Q01DX009 (ip), vehicle: saline with Tween-80
[6] = dose: 400.0 mg/kg/injection, schedule: Q01DX009 (ip), vehicle: saline with Tween-80
[7] = dose: 100.0 mg/kg/injection, schedule: Q04DX003 (ip), vehicle: saline with Tween-80
[8] = dose: 200.0 mg/kg/injection, schedule: Q04DX003 (ip), vehicle: saline with Tween-80
[9] = dose: 400.0 mg/kg/injection, schedule: Q04DX003 (ip), vehicle: saline with Tween-80
[10] = dose: 100.0 mg/kg/injection, schedule: Q01DX001 (ip), vehicle: saline with Tween-80
[11] = dose: 200.0 mg/kg/injection, schedule: Q01DX001 (ip), vehicle: saline with Tween-80
[12] = dose: 400.0 mg/kg/injection, schedule: Q01DX001 (ip), vehicle: saline with Tween-80
[13] = dose: 100.0 mg/kg/injection, schedule: Q01DX009 (ip), vehicle: Klucel (hydroxypropylcellulose) (HPC)
[14] = dose: 200.0 mg/kg/injection, schedule: Q01DX009 (ip), vehicle: Klucel (hydroxypropylcellulose) (HPC)
[15] = dose: 400.0 mg/kg/injection, schedule: Q01DX009 (ip), vehicle: Klucel (hydroxypropylcellulose) (HPC)
[16] = dose: 50.0 mg/kg/injection, schedule: Q01DX009 (ip), vehicle: saline with Tween-80

Measured: T/C

CCCCCCCCCCCCCCCC[n+]1ccccc1
inactive: dose: 0.78 mg/kg/injection, schedule: Q01DX009 (ip), vehicle: saline 112 % of control | dose: 1.56 mg/kg/injection, schedule: Q01DX009 (ip), vehicle: saline 120 % of control | dose: 3.13 mg/kg/injection, schedule: Q01DX009 (ip), vehicle: saline 120 % of control

C=C(C)[C@@H]1CC[C@]2(CO)CC[C@]3(C)[C@H](CC[C@@H]4[C@@]5(C)CC[C@H](O)C(C)(C)[C@@H]5CC[C@]43C)[C@@H]12
inactive: [1] 98 % of control | [2] 98 % of control | [3] 98 % of control

N#Cc1cn(C2OC(CO)C(O)C2O)c2[nH]cnc(=S)c12 (configuration not stated)
inactive: [1] 103 % of control | [2] 108 % of control | [3] 109 % of control

CN(C)c1ccc(/C=C(\C#N)c2ccc([N+](=O)[O-])cc2)c(Cl)c1
inactive: [4] 97 % of control | [5] 97 % of control | [6] 92 % of control

Cc1c(O)c(N=NC(N)=S)c2ccccc2c1O
inactive: [7] 100 % of control | [8] 102 % of control | [9] 100 % of control

O=C(NCCN=Cc1ccccc1)c1ccccc1
inactive: [10] 108 % of control | [4] 98 % of control | [11] 101 % of control | [5] 101 % of control | [12] 95 % of control | [6] 97 % of control

CCOC(=O)CC(C)(CC(=O)OCC)C(C#N)C(=O)OCC (configuration not stated)
inactive: [7] 116 % of control | [8] 119 % of control | [9] 120 % of control

O=[N+]([O-])c1ccc2[nH]c3c(c2c1)CSCC3
inactive: [13] 121 % of control | [14] 97 % of control | [15] 92 % of control

C=C1C(=O)O[C@H]2C[C@@]3(C)[C@H](O)CCC(=C)[C@@H]3[C@@H](OC(C)=O)[C@H]12
inactive: dose: 75.0 mg/kg/injection, schedule: Q01DX001 (ip), vehicle: saline 102 % of control | dose: 150.0 mg/kg/injection, schedule: Q01DX001 (ip), vehicle: saline 106 % of control | dose: 300.0 mg/kg/injection, schedule: Q01DX001 (ip), vehicle: saline 103 % of control

OC1CCSc2ccc3ccccc3c21 (configuration not stated)
inactive: [10] 108 % of control | [11] 105 % of control | [12] 103 % of control

CC(=O)NCc1cc(CNC(C)=O)c(C)cc1C
inactive: [4] 98 % of control | [7] 95 % of control | [5] 88 % of control | [8] 91 % of control | [6] 95 % of control | [9] 87 % of control

COC(=O)c1cncc(C(=O)OC)c1
inactive: [4] 94 % of control | [5] 92 % of control | [6] 90 % of control

COC1CC(O)C(OS(=O)(=O)c2ccc(C)cc2)C(C)O1 (configuration not stated)
inactive: [1] 112 % of control | [2] 100 % of control | [3] 102 % of control

CNCC(=O)NCCCCCCCCCCNC(=O)CNC
inactive: dose: 12.5 mg/kg/injection, schedule: Q01DX010 (ip), vehicle: saline 100 % of control | dose: 25.0 mg/kg/injection, schedule: Q01DX010 (ip), vehicle: saline 101 % of control | dose: 50.0 mg/kg/injection, schedule: Q01DX010 (ip), vehicle: saline 97 % of control | dose: 100.0 mg/kg/injection, schedule: Q01DX010 (ip), vehicle: saline 95 % of control

CCCCCCC[CH2][Sn]([CH2]CCCCCCC)([NH]S(=O)(=O)c1ccc(C)cc1)[NH]S(=O)(=O)c1ccc(C)cc1
inactive: dose: 75.0 mg/kg/injection, schedule: Q01DX001 (ip), vehicle: other 113 % of control | dose: 150.0 mg/kg/injection, schedule: Q01DX001 (ip), vehicle: other 107 % of control

C=CCSc1ncnc2c1c1c(N)ncnc1n2C1OC(CO)C(O)C1O (configuration not stated)
inactive: dose: 6.25 mg/kg/injection, schedule: Q01DX005 (ip), vehicle: other 103 % of control | dose: 12.5 mg/kg/injection, schedule: Q01DX005 (ip), vehicle: other 109 % of control | dose: 25.0 mg/kg/injection, schedule: Q01DX005 (ip), vehicle: other 101 % of control | dose: 50.0 mg/kg/injection, schedule: Q01DX005 (ip), vehicle: other 107 % of control | dose: 100.0 mg/kg/injection, schedule: Q01DX005 (ip), vehicle: other 103 % of control | dose: 200.0 mg/kg/injection, schedule: Q01DX005 (ip), vehicle: other 109 % of control

O=C(CNC(=O)Nc1cccc([N+](=O)[O-])c1)N/N=C/c1ccccc1O
inactive: [16] 93 % of control | [4] 86 % of control | [5] 89 % of control

Oc1ccccc1C=Nc1ccc(N=Cc2ccccc2O)cc1
inactive: [7] 88 % of control | [8] 91 % of control | [9] 100 % of control

NC1CC(=O)C(CC2C(=O)CC(N)CC2=O)C(=O)C1 (configuration not stated)
inactive: [7] 102 % of control | [8] 101 % of control | [9] 98 % of control

Cc1cc([N+](=O)[O-])c(Cl)cc1NS(=O)(=O)c1ccccc1
inactive: [16] 103 % of control | [4] 101 % of control | [5] 94 % of control

Cc1ccc(S(=O)(=O)N(CC(=O)O)c2cccc(Cl)c2)cc1
inactive: [13] 101 % of control | [14] 98 % of control | [15] 100 % of control

O=C(COc1ccc(Cl)c(Cl)c1)NCc1cccc(NC(=O)c2ccc(S(=O)(=O)F)cc2)c1
inactive: [10] 87 % of control | [11] 86 % of control | [12] 89 % of control

CC(=O)Nc1c(N)nc(Nc2nc3ccccc3[nH]2)[nH]c1=O
inactive: [4] 93 % of control | [7] 97 % of control | [5] 95 % of control | [8] 96 % of control | [6] 93 % of control | [9] 87 % of control

O=c1[nH]cc(Br)c2sccc12
inactive: [16] 102 % of control | [4] 104 % of control

COc1ccccc1OC(=O)Nc1ccc(C)c([N+](=O)[O-])c1
inactive: dose: 25.0 mg/kg/injection, schedule: Q04DX003 (ip), vehicle: saline with Tween-80 96 % of control | dose: 50.0 mg/kg/injection, schedule: Q04DX003 (ip), vehicle: saline with Tween-80 93 % of control | [7] 98 % of control and 103 % of control | [9] 97 % of control

OCC#CC1CCCCC1
inactive: [16] 107 % of control | [4] 107 % of control | [5] 101 % of control

O=[N+]([O-])c1cc([N+](=O)[O-])c2nc3ccccn3c2c1
inactive: [7] 101 % of control | [8] 101 % of control | [9] 101 % of control

O=C(CNC(=O)Nc1cccc([N+](=O)[O-])c1)N/N=C/c1cc(Br)ccc1O
inactive: [16] 92 % of control | [4] 88 % of control | [5] 88 % of control

CC(C)CC([N+](C)(C)C)P(=O)([O-])O (configuration not stated)
inactive: dose: 100.0 mg/kg/injection, schedule: Q04DX003 (ip), vehicle: saline 101 % of control | dose: 200.0 mg/kg/injection, schedule: Q04DX003 (ip), vehicle: saline 95 % of control | dose: 400.0 mg/kg/injection, schedule: Q04DX003 (ip), vehicle: saline 98 % of control

COc1cc(C2=N/C(=C\c3ccc(Cl)c(Cl)c3)C(=O)O2)cc(OC)c1OC
inactive: dose: 100.0 mg/kg/injection, schedule: Q04DX002 (ip), vehicle: saline with Tween-80 114 % of control | dose: 200.0 mg/kg/injection, schedule: Q04DX002 (ip), vehicle: saline with Tween-80 95 % of control | dose: 400.0 mg/kg/injection, schedule: Q04DX002 (ip), vehicle: saline with Tween-80 100 % of control
